From a melting point compilation (Tetko et al.; mined from patent text by program, amines drawn as free bases though some values may be those of a salt)

Row | SMILES | melting point [°C]
1 | CCCCCCCCCCCCCCCCCCOC(=O)c1ccc(C(=O)OCCCCCCCCCCCCCCCCCC)cc1 | 140
2 | CC(=O)N(C)c1nc(C)co1 | 27 to 29
3 | O=C(CCCN1CCCC(c2cccc(O)c2)C1)c1ccc(F)cc1 (stereo not drawn) | 77 to 78
4 | CC1=C(/C=C/C(C)=C/C=C/C(C)=C\C(=O)O)C(C)(C)C(O)CC1 (stereo not drawn) | 152 to 154
5 | CCCCCCc1ccc(CCc2cc3c(s2)NC(=S)CN=C3c2ccccc2Cl)cc1 | 140 to 145
6 | CC1Cc2c(NN)c(Cl)cc(Cl)c2O1 (stereo not drawn) | 59 to 64
7 | COc1cccc(OC)c1CN1CC2CCCN2c2ccccc21 (stereo not drawn) | 124 to 125
8 | COC(=O)OC[C@@H]1CC(c2ccc(-c3ccc(N4C[C@H](Cn5ccnn5)OC4=O)cc3F)cn2)=NO1 | 205
9 | COCCc1nc2c(N)nc3ccccc3c2n1CCCCN1CCCS1(=O)=O | 156 to 158
10 | COc1ccc(Cc2nc3cc(Cl)cc(CCO)c3o2)cc1OC1CCCC1 | 74 to 76
11 | CCOC(=O)c1nc(NC(C)=O)sc1Cc1ccc(SC)cc1 | 205 to 206
12 | CCOc1ccc2c(=O)c(C(=O)O)cn(CCO)c2n1 | 220
13 | O=c1[nH]ncc2[nH]c(-c3ccc(OC(F)F)c(OC4CC4)c3)c(-c3cn[nH]c3)c12 | 294 to 297
14 | O=C(O)c1cc2cc(F)c(F)cc2o1 | 270
15 | COc1cccc(C(=O)c2ccc(C(F)(F)F)cc2)c1 | 69
16 | Fc1ccc2c(-c3ccncc3)noc2c1 | 138 to 146
17 | CC(C)(C)OC(=O)[C@@H]1CC[C@H](NC(=O)CNC(=O)c2ccc(OCc3ccccc3)c(C(C)(C)C)c2)[C@H](C(=O)O)C1 | 126 to 132
18 | NC(=O)c1cnc2n(c1=O)CCC2 | 293
19 | COc1cccc(CNC(=O)c2cc3c(=O)n(CCOc4ccc(Cl)cc4)c(=O)n(C)c3s2)c1 | 109 to 112
20 | CCOC(=O)C1=Cc2cc(C(F)F)ccc2OC1C(F)(F)F (stereo not drawn) | 135 to 136
21 | COc1cc2ncc(C#N)c(Nc3cccc(C(=O)O)c3C)c2cc1OC | 242 to 245
22 | Cc1ccc2c(c1)C(c1cn(C)c(=O)[nH]c1=S)c1nc(C)oc1C=C2 (stereo not drawn) | 238 to 240
23 | CC(=O)Oc1ccc(C(=O)OCC[C@H](C)COC(=O)c2ccc(OC(C)=O)cc2)cc1 | 46

Row | SMILES | melting point [°C]
24 | O=C(NC(c1ccc([N+](=O)[O-])cc1)P(=O)(Oc1ccccc1)Oc1ccccc1)N(c1ccccc1)c1ccccc1 (stereo not drawn) | 157 to 162
25 | O=C1CCCN1C(=O)Oc1cccc(Cl)c1 | 88 to 89
26 | CC1(Br)Cc2cc(C(=O)O)ccc2C1=O (stereo not drawn) | 203 to 205
27 | O=C(c1ccc(Cl)c([N+](=O)[O-])c1)c1ccccn1 | 98 to 99
28 | Cc1cc(=S)c(OCC(=O)O)co1 | 120 to 125
29 | O=C(O)c1ccc2c(c1-c1c(C(=O)O)ccc3c1OCO3)OCO2 | 253 to 255
30 | C=CC1(C=CC)OC(=O)N(c2cc(Cl)cc(Cl)c2)C1=O (stereo not drawn) | 141
31 | COC(=O)C(NC(=O)c1c(F)cccc1F)c1ccc(Br)s1 (stereo not drawn) | 123 to 124
32 | N#Cc1nn(-c2c(Cl)cc(C(F)(F)F)cc2Cl)cc1C1C=CCC1 (stereo not drawn) | 76 to 80
33 | CC(OC1(c2ccccc2F)NOc2c(Cl)cccc21)C(=O)O (stereo not drawn) | 159 to 161
34 | CCN(CC)c1ccc(/C=C/C(=O)CC(=O)/C=C/c2ccc3cc[nH]c3c2)c(OCc2ccccn2)c1 | 92 to 96
35 | Cc1ccc(S(=O)(=O)OC[C@H]2COc3ccc([N+](=O)[O-])c(CC(=O)O)c3O2)cc1 | 158 to 159
36 | O=[N+]([O-])c1ccc(CCN2CCN(c3ccc([N+](=O)[O-])cc3Cl)CC2)cc1 | 100 to 102
37 | CC1CNc2cc(C3=NNC(=O)CC3)ccc2O1 (stereo not drawn) | 294 to 296
38 | C=CCOC(=O)c1ccc(OC(=O)c2ccc(OC)c(C34CC5CC(CC(C5)C3)C4)c2)c(C(C)(C)C)c1 | 113 to 115
39 | COC(=O)C[C@@H](CC(=O)C=Cc1c(-c2ccc(F)cc2)c(-c2ccccc2)c(C(=O)NCc2ccc(F)cc2)n1C(C)C)O[Si](C)(C)C(C)(C)C | 62 to 63
40 | CC12CC3(C)CC(c4ccc(O)cc4)(C1)CC(c1ccc(O)cc1)(C2)C3 | 222 to 224
41 | CCSc1cc(C(C)(C)C)c(O)c(C(C)(C)C)c1 | 33
42 | CC(C)(C)OC(=O)N1CCC(c2nc(-c3ccncc3)c(-c3ccc(F)cc3)[nH]2)CC1 | 157 to 160
43 | COC(=O)c1ccc(Cc2c(Cl)n(C)c3cc(Cl)c(CCNC(=O)N(C)C)cc23)c(OC)c1 | 186 to 189
44 | CCOC(=O)C(=CO)CCN1CCC(C2(c3ccc(F)cc3)OCCO2)CC1 | 117
45 | O=c1[nH]c(CCN2CCCCC2)cc2c(O)cccc12 | 261 to 263
46 | Cc1cc2cc(CN3CCCC3)cnc2cc1NC(=O)c1ccc(-c2ccc(F)cc2)cc1F | 174 to 177

Row | SMILES | melting point [°C]
47 | CC(C)(C)[Si](C)(C)OCCn1ccc([N+](=O)[O-])n1 | 76 to 77
48 | Cc1cc(C)c2c(c1)SCCC2=NO | 170 to 174
49 | COc1cc(OC)cc(N2CCN(C(=S)Nc3cc4ccccc4nc3C)CC2)c1 | 211 to 212
50 | COc1ccc(/C=C/c2ccncc2)cc1O | 196 to 199
51 | COc1cc(CC(=O)Nc2cnn(Cc3c(C)noc3C)c2)cc(OC)c1O | 187 to 188
52 | Nc1cc(C(F)(F)C(F)(F)F)no1 | 86 to 87
53 | CC(C)CNc1c([N+](=O)[O-])cnc2cccnc12 | 97 to 99
54 | CC(C)(C)OC(=O)N1C[C@@H](CC(=O)C(=[N+]=[N-])C(=O)OCc2ccc([N+](=O)[O-])cc2)[C@H]2NC(=O)[C@H]21 | 132 to 134
55 | Cc1c(Cc2ccc(C(C)C)cc2)c2c(c(C)c1NC(=O)CC(C)(C)C)C(C)(O)C(C)(C)O2 (stereo not drawn) | 170 to 171
56 | CCOC(=O)CNc1nccc(-c2ccccn2)n1 | 85
57 | CNC(=O)Nc1c(C)nn(-c2cc(OC(C)C)c(Cl)cc2F)c1C | 184 to 185
58 | CSC1=NC(C)(C)SC1=NO | 168 to 171
59 | COC(=O)Cc1cc(Cl)ccc1O | 84 to 85
60 | CCOC(=O)c1ccc(C2=NOC(c3cc(Cl)cc(Cl)c3)(C(F)(F)F)C2)cc1[N+](=O)[O-] (stereo not drawn) | 160 to 162
61 | C=CCC(C)(C)C(O)C(c1cccc(OC)c1)n1ccnc1 (stereo not drawn) | 83
62 | c1ccn2c(=Nc3nccs3)snc2c1 | 169 to 171
63 | NS(=O)(=O)c1cc2c(cc1Cl)NCN(CCO)S2(=O)=O | 199 to 203
64 | C=CCc1cc(Cc2cnc(N)nc2N)c2ccc(C)nc2c1OC | 219 to 222
65 | CCCc1cc(C(=O)O)nn1C | 120 to 122
66 | Cc1cc(N2C(=O)N(CCCCCCCCCSCCCC(F)(F)C(F)(F)F)C(C)(C)C2=O)ccc1NS(N)(=O)=O | 102 to 104
67 | COCSc1ccc2c(c1)CC[C@@H]1[C@@H]2CC[C@]2(C)C(=O)CC[C@@H]12 | 55
68 | CC(C)CC(C)c1cc(C(C(F)(F)F)C(F)(F)F)ccc1NC(=O)c1c(C(F)(F)F)nn(C)c1Cl (stereo not drawn) | 102 to 104

Continued, values first:

Row | melting point [°C] | SMILES
69 | 208 to 210 | Oc1ccc(-c2ccc3c(Br)c(O)ccc3c2)cc1
70 | 233 to 235 | O=C(O)[C@@H]1Cc2ncn(Cc3ccccc3)c2CN1C(=O)c1ccccc1
71 | 168 to 170 | O=C(c1ccccc1CN1C(=O)C2(COc3cc4c(cc32)CCO4)c2ccccc21)N1CCCCC1 (stereo not drawn)
72 | 140 to 145 | CN1C(=O)CC[C@]2(C)c3ccc(-c4ccc5ccccc5n4)cc3CC[C@@H]12
73 | 188 to 189 | Cc1ccc(-n2nc3c(cc2=O)CCc2cnccc2-3)cc1
74 | 172 to 173 | Cc1ccc(C(=S)c2[nH]c3cc(Cl)ccc3c2N)cc1
75 | 113 to 115 | COC1=CC(=O)CN(Cc2ccccc2)C1
76 | 128 to 130 | COc1cc([C@H]2C(C#N)=C(N)Oc3c2ccc(NC(=O)CN(C)C(=O)OC2c4ccccc4-c4ccccc42)c3N)cc(Br)c1OC
77 | 209 | O=C(O)c1ccc(CNCc2cc(Br)ccc2OCc2ccccc2)cc1
78 | 118 to 120 | CC1Cc2cc3c(cc2C(c2ccc(N)cc2)=NN1C(=O)Nc1ccccc1)OCO3 (stereo not drawn)
79 | 243 to 245 | Cc1nc(-n2ccc(OCc3ccc(F)cc3)cc2=O)sc1C(=O)NCc1ccccc1
80 | 198 to 201 | Nc1nc(SCc2ccccc2)nn1-c1nnc(-c2ccccc2O)s1
81 | 133 to 134 | Cc1ncccc1O[C@@H]1COc2ccc(OCc3ccccc3)cc2[C@@H]1O (relative stereo)
82 | 156 to 157 | Fc1ccc(-c2cc3cccc(Cl)n3n2)cc1
83 | 202 to 203 | CN1C(=O)c2ccccc2CC12c1ccccc1C(=O)N2C (stereo not drawn)
84 | 140 to 147 | Oc1ccc2nc(-c3ccc(O)c(F)c3)cc(-c3ccc(Cl)cc3)c2c1
85 | 108 to 110 | COc1ccc(NCCCN)c2c1C(=O)c1ccccc1C2=O
86 | 85 to 95 | CN(C)CCCOc1ccc(C(=O)c2c(-c3ccccc3)oc3ccccc23)cc1
87 | 124 | O=C(NCc1ccccc1)c1ccc(F)c2c1CC(N(CCCc1c[nH]c3ccc(F)cc13)C1CCC1)CO2 (stereo not drawn)
88 | 160 to 163 | O=C1C(Cl)=C(N2CCN(C(=O)Nc3ccccc3Cl)CC2)C(=O)c2ccccc21
89 | 272 to 273 | CC(C)COc1ccccc1C1=NC(=O)C2=NC=NC2=N1
90 | 118 to 120 | O=C(O)/C=C/c1ccc(Oc2c(-c3ccccc3)c(CCC(F)(F)F)cc3cc(O)ccc23)cc1
91 | 216 to 218 | CC(C(=O)O)c1ccc2cc(OCc3ccc4ccccc4c3)ccc2c1 (stereo not drawn)
92 | 176 to 183 | Oc1ccc2cc(-c3csc(-c4ccccc4)n3)ccc2c1Br
93 | 174 to 175 | Cc1cc(-c2csc(-c3cccc(C(=O)O)c3)n2)c(C)o1
94 | 103 to 105 | Clc1ccccc1-c1nc(-c2ccccc2)c(-c2ccccc2)n1Br
95 | 190 | O=CNc1cccc(C(=O)Nc2ccc(-c3ccccc3)cc2)c1O
96 | 183 to 185 | N=C(Nc1ccc2[nH]cc(-c3ccncc3)c2c1)c1cccs1
97 | 185 to 187 | COC(=O)c1ccc(-c2nc(-c3ccc(C)cc3)cs2)cc1
98 | 103 to 104 | CC(C)Oc1ccc(CCCOc2nn(Cc3ccccc3)cc2CC(=O)O)c(OCc2ccc(Cl)cc2Cl)c1
